We go through one compound from article PMC11251039, “Harnessing cholesterol uptake of malaria parasites for therapeutic applications” (EMBO Molecular Medicine, 2024).

The test system of the test is P. falciparum CAM3.II ring stages (0–3 h post invasion). In words: Plasmodium falciparum ring stage survival assay, resistant strain. The format is cell-based. As for the experimental part:
Following tight synchronisation using sorbitol and Percoll® floatation, ring stage CAM3.II and CAM3.IIREV parasites (0–3 h post invasion) at 1% parasitaemia and 2% haematocrit were incubated with 700 nM of compounds or solvent-only controls for exactly 6 h, before removing the drug, thoroughly washing in RPMI with HEPES, and returning to culture conditions for a further 66 h. Some cells were treated with 700 nM artesunate for 72 h as a no-growth control. DNA replication (indicating growth) was measured at the specified time using SYBR Safe DNA Stain. Microscope slide smears of each condition were stained with 10% v/v Giemsa and examined under a light microscope (×1000 magnification); with ‘viable’ (morphologically normal) and ‘non-viable’ (morphologically aberrant; vacuolated or pyknotic) parasites distinguished according to standard protocol (Witkowski et al, [2013]). Images were captured using a Leica ICC50 camera, with a resolution of 76 nm per pixel, and cropped from larger images using Fiji ImageJ.
Appendix Fraser/Curtis et al.
Cells were detached from a flask using 0.25% Trypsin with 0.2 g/L EDTA (Sigma T4049) and washed with culture media containing no phenol red. Cells were incubated with a serial dilution of each compound, or media/DMSO alone. The protein synthesis inhibitor cycloheximide (Sigma 01810) at 10 µg/mL was used as a positive control to determine background absorbance. 5,000 cells were seeded in each well. After 96 hours, 0.45 mg/mL methylthiazolyldiphenyl-tetrazolium bromide (MTT; Sigma M2128) was added and incubated for a further two hours, before mixing 1.1:1 with 10% w/v sodium dodecyl sulfate (SDS) to solubilise crystals and freezing the plate at -18 °C to stop the assay. Plates were defrosted at room temperature and absorbance was read at 570 nm in an Infinite M1000 pro plate reader […]
Plasmodium falciparum Ring Stage Survival Assay
Ring stage survival assays were conducted according to standard protocols with some modifications (27, 28). CAM3.11 and CAM3.11REV parasites were sorbitol synchronised twice, 12 hours apart, and then incubated for a further 30 hours until the majority of the parasites were mature schizonts (with clearly separated nuclei). Pelleted RBCs were incubated at 37 °C with heparinised RPMI for 15 minutes, and then centrifuged over 75% Percoll® in PBS for 15 minutes at 1,000 g. Mature schizonts were collected, washed with warm RPMI, and cultured for exactly three hours with fresh uRBCs and culture media. After 3 hours, the cultures were sorbitol synchronised and incubated in duplicate with 700 nM of artesunate, PAYb076a, GGA5, HJB8a53, a DMSO solvent-only control or media alone for exactly six hours, before removing the drug, washing in RPMI, and returning to culture conditions. Samples of each cell suspension were transferred to a -18 °C freezer at the start of the assay (time = 0) or treated for the entire 72 hours with 700 nM artesunate to determine background fluorescence under no-growth conditions. After a further 66 hours of incubation (totalling 72 hours), cells were […]
resuspended, and a sample from each well was transferred to a fresh plate and frozen at -18 °C.
Microscope slide smears were made using the remaining cells and stained with 10% v/v Giemsa. Plates were thawed and SYBR Safe DNA Gel Stain (final concentration 1/10,000) diluted in lysis buffer (as above) was added for DNA detection at 490 nm excitation / 520 nm emission on a FLUOstar Optima fluorescence plate reader. Parasite proliferation and viability were also assessed using Giemsa-stained smears examined under a light microscope (1,000× magnification); with ‘viable’ and ‘non-viable’ (vacuolated or pyknotic) parasites distinguished according to standard protocol. Images were captured using a Leica ICC50 camera, with a resolution of 76 nm per pixel.
Growth inhibition data were normalised by subtracting background fluorescence, […]

Several values for one entry are separate records, joined by “and”; a condition that tells them apart may be missing. Identical values can stand only once.

For the compound `CC(C)OC(=O)CCC(=O)O[C@H]1CC[C@H]2[C@@H]3CC=C4C[C@@H](O)CC[C@]4(C)[C@H]3CC[C@]12C` [C-17-link], the “Ring stage survival, growth” value (700 nM, 6 h treatment, 66 h further growth, CAM3.II resistant) was “did not significantly impact the growth”. Further, the “Ring stage survival, individual data points (Figure 4C)” value (CAM3.11, replicate experiments, listed as HJB8a53) was 67.82 and 103.7 and 86.39 and 70.09.
